Where two headings read alike, the source gives them in different places.
Legend:
GBA2 [1] = biological target: T1, GBA2 (Homo sapiens, UniProt Q9HCG7); experiment: Binding specificity (selectivity) for GBA2 over other enzymes; format: biochemical; conditions: compared to a suitable reference compound, e.g. NB-DNJ (miglustat) or AMP-DNM
T1 sequence (Q9HCG7 1-927): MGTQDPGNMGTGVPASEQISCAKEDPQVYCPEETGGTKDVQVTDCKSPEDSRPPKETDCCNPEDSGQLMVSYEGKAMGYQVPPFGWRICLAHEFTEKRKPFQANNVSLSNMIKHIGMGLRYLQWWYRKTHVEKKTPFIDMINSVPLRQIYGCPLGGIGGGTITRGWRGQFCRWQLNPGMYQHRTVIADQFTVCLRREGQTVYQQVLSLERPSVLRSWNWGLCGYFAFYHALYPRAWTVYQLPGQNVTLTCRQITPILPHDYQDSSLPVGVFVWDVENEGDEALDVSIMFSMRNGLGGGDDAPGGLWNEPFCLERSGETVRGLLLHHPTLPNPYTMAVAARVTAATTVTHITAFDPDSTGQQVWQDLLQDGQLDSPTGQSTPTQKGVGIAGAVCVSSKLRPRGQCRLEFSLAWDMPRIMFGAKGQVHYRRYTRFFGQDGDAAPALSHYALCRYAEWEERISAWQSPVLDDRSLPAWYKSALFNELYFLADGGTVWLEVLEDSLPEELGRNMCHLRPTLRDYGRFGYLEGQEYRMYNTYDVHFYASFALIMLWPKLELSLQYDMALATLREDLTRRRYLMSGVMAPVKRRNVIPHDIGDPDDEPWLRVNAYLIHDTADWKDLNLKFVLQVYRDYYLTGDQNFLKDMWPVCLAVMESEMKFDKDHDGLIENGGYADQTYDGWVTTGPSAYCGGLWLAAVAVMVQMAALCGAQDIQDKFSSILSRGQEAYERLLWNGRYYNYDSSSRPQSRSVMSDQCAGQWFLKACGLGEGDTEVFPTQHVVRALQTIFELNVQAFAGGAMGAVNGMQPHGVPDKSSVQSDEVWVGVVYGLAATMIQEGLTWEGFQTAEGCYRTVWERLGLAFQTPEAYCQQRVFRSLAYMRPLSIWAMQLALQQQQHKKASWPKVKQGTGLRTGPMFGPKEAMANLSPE
Description: In some embodiments, one or more of the compounds according to the invention may specifically bind a GBA2. In alternative embodiments, one or more of the compounds according to the invention may specifically bind the active site of a GBA2. […] In alternative embodiments, one or more of the compounds according to the invention may specifically bind the human non-lysosomal glucosylceramidase (GBA2) over the human lysosomal glucosylceramidase (GCase) and/or the human cytosolic glucosylceramidase (GBA3). In alternative embodiments, one or more of the compounds according to the invention may specifically bind the human non-lysosomal glucosylceramidase (GBA2) over the human glucosylceramide synthase (GCS). In alternative embodiments, one or more of the compounds according to the invention may specifically bind the human non-lysosomal glucosylceramidase (GBA2) over an intestinal alpha-glucosidase, where the intestinal alpha-glucosidase may be a sucrase-isomaltase or a maltase-glucoamylase.

[2] = Brain concentration when administered in vivo; conditions: compared to a suitable reference compound, e.g. NB-DNJ (miglustat) or AMP-DNM
Description: Permeability can be assessed using a variety of standard experimental techniques, including without limitation in situ perfusion, ex vivo tissue diffusion, in vitro cell monolayers (e.g. Caco-2 cells, MDCK cells, LLC-PK1 cells), and artificial cell membranes (e.g. PAMPA assay); suitable techniques for measuring effective permeability (Peff) or apparent permeability (Papp) are reviewed for example by Volpe in The AAPS Journal, 2010, 12(4), 670-678. In some embodiments, one or more of the compounds according to the invention may show enhanced permeability when tested in one or more of these assays for determining Peff or Papp. […] In some embodiments, “enhanced permeability” means an increase in measured Peff or Papp by any value between about 10% and about 100%, or of any integer value between about 10% and about 100%, for example, about 10%, 20%, 30%, 40%, 50%, 60%, 70%, 80%, 90%, 100%, or over 100%, or an increase by about 1-fold, 2-fold, or 3-fold, or more, as compared to a suitable reference compound such as, for example, N-butyldeoxynojirimycin (NB-DNJ, miglustat) or N-(5-adamantane-1-yl-methoxy)pentyl)-deoxynojirimycin (AMP-DNM, Genz-529648). In some embodiments, “enhanced permeability” means a measurable Papp value (i.e. a value greater than zero) in a suitable assay to measure Papp using in vitro cell monolayers. In some embodiments, “enhanced permeability” means a Papp value greater than 2×10^−6 cm/s in a suitable assay to measure Papp using in vitro cell monolayers. In alternative embodiments, “enhanced permeability” means a Papp value in the range 2×10^−6 cm/s to 40×10^−6 cm/s in a suitable assay to measure Papp using in vitro cell monolayers. In some embodiments, “higher brain concentration” means an increase in measured brain concentration when the compound is administered in vivo by any value between about 10% and about 100%, or of any integer value between about 10% and about 100%, for example, about 10%, 20%, 30%, 40%, 50%, 60%, 70%, 80%, 90%, 100%, or over 100%, or an increase by about 1-fold, 2-fold, 3-fold, 4-fold, 5-fold, 10-fold, 20-fold, 30-fold, 40-fold, or 50-fold, or more, as compared to a suitable reference compound such as, for example, N-butyldeoxynojirimycin (NB-DNJ, miglustat) or N-(5-adamantane-1-yl-methoxy)pentyl)-deoxynojirimycin (AMP-DNM, Genz-529648).

GBA2 [3] = biological target: T1, GBA2; experiment: Determination of IC50 values for inhibition of GBA2 in cell lysate; format: biochemical; design: host or cells: HEK293T (lentiviral transduction, puromycin selection); used as cellular homogenate
Procedure, shortened: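 Homogenate of HEK293T cells stably overexpressing human GBA2 (0.083 mg/mL final), pretreated with 20 μM GCase inhibitor, preincubated 5 min at 37 °C with compound, then reacted 20 min with 250 μM 4-methylumbelliferyl-β-D-glucopyranoside at pH 5.5 (citrate-phosphate, 1% C10E6). Fluorescence read at 365/450 nm after alkaline stop; IC50 from log-inhibitor curve fit.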

[4] = cellular homogenate of HEK293T cells overexpressing human GBA2, 250 μM 4-methylumbelliferone-β-D glucopyranoside, pH 5.5, 37° C., GCase inhibitor present, read-out: GBA2 IC50

IC50 (GBA2 [3]; [4])	Structure (SMILES)	binding specificity (IC50 or Ki of other molecule / GBA2) (GBA2 [1])	brain concentration when administered in vivo [2]	IC50 (GBA2 [3])
< 0.1 µM	CC(C)[C@H]1CC[C@@H](CN2C[C@H](O)[C@@H](O)[C@H](O)[C@H]2C)CC1 [Example 7, (2R,3R,4R,5S)-1-(((1s,4S)-4-isopropylcyclohexyl)methyl)-2-methylpiperidine-3,4,5-triol]	enhanced binding specificity	higher brain concentrations	
< 0.1 µM	C[C@@H]1[C@@H](O)[C@H](O)[C@@H](O)CN1C[C@H]1CC[C@H](C(F)(F)F)CC1 [Example 12, (2R,3R,4R,5S)-2-methyl-1-(((1r,4R)-4-(trifluoromethyl)cyclohexyl)methyl)piperidine-3,4,5-triol]	enhanced binding specificity	higher brain concentrations	
< 0.1 µM	C[C@@H]1[C@@H](O)[C@H](O)[C@@H](O)CN1CC1CCN(c2ccc(F)cc2)CC1 [Example 85, (2R,3R,4R,5S)-1-((1-(4-fluorophenyl)piperidin-4-yl)methyl)-2-methylpiperidine-3,4,5-triol]		higher brain concentrations	
< 0.1 µM	O[C@H]1[C@H](O)[C@@H](O)CN(CCc2c(F)cc(-c3ccccc3)cc2F)[C@@H]1CF [Example 151, (2S,3R,4R,5S)-1-(2-(3,5-difluoro-[1,1′-biphenyl]-4-yl)ethyl)-2-(fluoromethyl)piperidine-3,4,5-triol]	enhanced binding specificity		

The next lines start with the molecule.

Structure (SMILES)	IC50 (GBA2 [3]; [4])	binding specificity (IC50 or Ki of other molecule / GBA2) (GBA2 [1])	brain concentration when administered in vivo [2]	IC50 (GBA2 [3])
C[C@@H]1[C@@H](O)[C@H](O)[C@@H](O)CN1CCc1cccc(Cl)c1F [Example 45, (2R,3R,4R,5S)-1-(3-chloro-2-fluorophenethyl)-2-methylpiperidine-3,4,5-triol]		enhanced binding specificity	higher brain concentrations	< 0.1 µM
C[C@@H]1[C@@H](O)[C@H](O)[C@@H](O)CN1CCc1c(F)ccc(Cl)c1F [Example 49, (2R,3R,4R,5S)-1-(3-chloro-2,6-difluorophenethyl)-2-methylpiperidine-3,4,5-triol]		enhanced binding specificity	higher brain concentrations	< 0.1 µM
C[C@@H]1[C@@H](O)[C@H](O)[C@@H](O)CN1CCc1ccc2c(c1)OCO2 [Example 70, (2R,3R,4R,5S)-1-(2-(benzo[d][1,3]dioxol-5-yl)ethyl)-2-methylpiperidine-3,4,5-triol]		enhanced binding specificity	higher brain concentrations	< 0.1 µM
O[C@H]1[C@H](O)[C@@H](O)CN(CCc2cc3c(cc2F)OCO3)[C@@H]1CF [Example 152, (2S,3R,4R,5S)-1-(2-(6-fluorobenzo[d][1,3]dioxol-5-yl)ethyl)-2-(fluoromethyl)piperidine-3,4,5-triol]		enhanced binding specificity		< 0.1 µM

— patent publication US12612380B2, “Non-lysosomal glucosylceramidase inhibitors and uses thereof” (ALECTOS THERAPEUTICS INC., priority 2019, dated 2026)
